Experimental data: patent US9585929B2 (ZHEJIANG KANGLAITE GROUP CO., LTD., priority 2014, dated 2017)
Marks after values point to notes of the source that are not given here. Blank lines part the entries; values can stand above or below the molecule they belong to.

Experiments:
[1] = tested on: QGY human hepatoma; test: Xenograft model of QGY human hepatoma inoculated subcutaneously in nude mice
Method: (§1) A549 Human lung cancer cells cryopreserved in liquid nitrogen were recovered, and incubated in a 37 incubator under 5% CO2. After being subcultured, cells in a logarithmic growth stage were distributed with normal saline to be a cell suspension in a concentration of 1-2×10^7 cells/ml. The cell suspension was inoculated into BALB/C nude mice (SPF grade, 18-20 g, 6 weeks old, male) subcutaneously at right axillary. The tumor tissues were aseptically taken from the 2nd generation of xenograft model of A549 human lung cancer in a vigorous growth stage and cut into small uniform pieces in the size of 1-2 mm^3. The right axillary of each nude mouse was inoculated one piece subcutaneously via a trocar. When the inoculated tumor could be touched, the mice were randomly grouped and administered according to the experimental design program. All contacted feed, padding, cages and equipment, etc., should be autoclaved prior to use. The nude mice were fed in a laminar flow rack. Tumor sizes and animal weights were observed and tested dynamically. Mice in each group were sacrificed 3 weeks later or so, and tumors were surgically removed and weighed. The inhibition rate on tumor was calculated according to the following formula: Inhibition rate %=[(Mean tumor weight of the control group−mean tumor weight of the treatment group)/mean tumor weight of the control group]×100%;
(§2) Q value of antitumor effect in drug combination was calculated according to Jin's formula: Q=Ea+b/(Ea+Eb−Ea×Eb) Wherein Ea+b=the tumor inhibition rate of drug combination, Ea or Eb=the tumor inhibition rate of drug A or drug B, respectively. If Q value=0.85-1.15, an additive effect (+) was shown; if Q value>1.15, a synergistic effect (++) was shown.

[2] = tested on: A549 human lung cancer; test: Xenograft model of A549 human lung cancer inoculated subcutaneously in nude mice; assay type: in vivo, BALB/C nude mice
Method: as §1, §2

[3] = tested on: S180 sarcoma; test: S180 sarcoma model in mice; assay type: in vivo, Kunmin mice; details: DHAD 2 mg/kg ip × 2(1, 3)
Method: The injection of the invention (10 g/100 ml), Cyclophosphamide (CTX), Mitoxantrone (DHAD), Mitomycin (MMC) and normal saline
Ascitic fluid of mice having well-grown […] sarcoma was diluted with normal saline (1:4) to obtain a cell suspension of about 1-2×10^7 cells/ml. Each mouse was inoculated with 0.2 ml of the suspension subcutaneously at the right axilla, and the mice were grouped randomly. The administration began from the next day according to the dosage program in Table 7. On the tenth day after the inoculation of S180, animals were sacrificed via cervical dislocation and dissected to take out the tumor block. Weights of tumor were compared and inhibition rates were calculated for each group.

[4] = tested on: Bcap-37 human breast cancer; test: Bcap-37 human breast cancer model in nude mice; assay type: in vivo, BALB/C nude mice; details: Docetaxel 25 mg/kg ip × 1
Method: The injection of the invention (10 g/100 ml), Docetaxel injection (Taxotere, 20 mg/vial) and normal saline
Bcap-37 human breast cancer: inoculated in BALB/C nude mice (SPF grade), 18-20 g, female
Tumor blocks of well-grown Bcap-37 human breast cancer were homogenized in normal saline to obtain cell suspensions in the concentration of 1-2×10^7 cells/ml. Each nude mouse was inoculated with 0.2 ml of the suspension at the right axilla subcutaneously, and the mice were grouped randomly. The administration began from the 7th day after the inoculation. 20 Days after the inoculation, the mice were sacrificed. Tumor blocks were taken out and weighed. Differences of tumor weight between each experimental group and the control group were compared, and tumor inhibition rates and Q values were calculated.

Weight of animal start ([1]; Adriamycin 1 mg/kg ip × 7 qd): 21.3 g
Structure (SMILES): COc1cccc2c1C(=O)c1c(O)c3c(c(O)c1C2=O)C[C@@](O)(C(=O)CO)C[C@@H]3O[C@H]1C[C@H](N)[C@H](O)[C@H](C)O1 [Adriamycin]
Inhibition rate ([1]; Adriamycin 1 mg/kg ip × 7 qd): 38.41% | Weight of tumor x ± SD ([1]; Adriamycin 1 mg/kg ip × 7 qd): 0.712 ± 0.18 g | Inhibition rate ([1]; Adriamycin 2 mg/kg ip × 7 qd): 70.76% | Weight of tumor x ± SD ([1]; Adriamycin 2 mg/kg ip × 7 qd): 0.338 ± 0.17 g

Structure (SMILES): N.N.[Cl][Pt][Cl] [Cisplatin]
Inhibition rate ([2]; Cisplatin 1 mg/kg ip × 7 qd): 42.13% | Weight of animal end ([2]; Cisplatin 1 mg/kg ip × 7 qd): 24.0 g | Weight of animal start ([2]; Cisplatin 1 mg/kg ip × 7 qd): 20.2 g | Weight of tumor x ± SD ([2]; Cisplatin 1 mg/kg ip × 7 qd): 0.765 ± 0.11 g | Inhibition rate ([2]; Cisplatin 2 mg/kg ip × 7 qd): 86.31% | Weight of animal end ([2]; Cisplatin 2 mg/kg ip × 7 qd): 23.1 g | Weight of tumor x ± SD ([2]; Cisplatin 2 mg/kg ip × 7 qd): 0.181 ± 0.06 g

Structure (SMILES): O=C1c2c(O)ccc(O)c2C(=O)c2c(NCCNCCO)ccc(NCCNCCO)c21 [DHAD, Mitoxantrone]
Inhibition rate [3]: 50.63** % | Weight of tumor x ± SD [3]: 0.78 ± 0.20 g

Structure (SMILES): CC(=O)O[C@@]12CO[C@@H]1C[C@H](O)[C@@]1(C)C(=O)[C@H](O)C3=C(C)[C@@H](OC(=O)[C@H](O)[C@@H](NC(=O)OC(C)(C)C)c4ccccc4)C[C@@](O)([C@@H](OC(=O)c4ccccc4)[C@H]21)C3(C)C [Docetaxel]
Inhibition rate [4]: 56.80% | Weight of tumor x ± SD [4]: 1.27 ± 0.88 g
